Assay [1] concerns STING, TBK1, IRF3, RELA, IRF7. The assay is described as follows: Western blot of key signaling proteins involved in STING signaling. Format: cell-based, human. The method, then: 0.5 million cells were lysed for 30 minutes on ice in 50 μl RIPA buffer (50 mM Tris HCl, 150 mM NaCl, 0.1% SDS, 0.5% DOC, 1% NP-40) with Protease inhibitor (Roche #1187358001). To evaluate, phospho-proteins 50 mM NaF and 1 mM sodium orthovanadate were added to the lysis buffer. Protein lysates were cleared by centrifugation at 12,000 g for 10 to 12 minutes at 4° C. 10 μl of 6× Laemmli buffer (fisher scientific #J61337) was added to 50 μl protein lysates and samples were boiled at 95° C. for 15 minutes. Protein samples were resolved on 4%-20% Biorad precast SDS-PAGE gels (#5671125) and transferred onto PVDF membranes (BioRad #1704157). Membranes were blocked in 5% non-fat dry milk in PBS 0.1% tween or in TBS 5% BSA 0.1% Tween to detect phosphorylated proteins. Primary antibodies were used at 1:1000:phospho-STING (clone-D7C3S), STING (clone-D2P2F), serine 172 phospho-TBK1 (clone-D52C2), TBK1 (clone-D11B4), serine 396 phospho IRF3 (clone-D6O1M), IRF3 (clone-D83B9), RELA (clone-C22B4), IRF7 (clone-12G9A36), cGAS (clone-D1 D3G), Actin (clone-C4), Sendai viral proteins (Biozol #MBL-PD029). Secondary anti-rabbit or anti-mouse antibody were used at 1:10,000 (santa cruz #sc-2357, #sc-516102). ECL signal (Biorad #1705061 and #1705062) was recorded on a ChemiDoc Touch Biorad Imager. Data was analyzed and quantified with Image Lab software (Biorad). In figures, dotted lines indicate reordering of lanes from a single original membrane for visualization purpose.
For orientation: Immunoblotting shows a protein as a band on a membrane.

A further assay has as its system MDDC. The assay is described as follows: IFN-I/III quantification (LEGENDplex) in MDDC after STING stimulation. The class given is cell-based, human. The method, then: Plasmapheresis blood pockets were obtained from healthy adult volunteers after informed consent from the EFS (Establishment of French blood collection). Peripheral blood mononuclear cells (PBMCs) were isolated using Ficoll-Paque Plus (GE-17144003) and left overnight at 4° C. in RPMI (Thermo fischer #61870-010) with 10% heat-decomplemented fetal bovine serum (FBS, Eurobio #CVFSVFO0-01). CD14+ cells were enriched by positive selection (Miltenyi #130-050-201), the CD14 negative fraction was subsequently used to isolate total CD4+ T cells by negative selection (Stem Cell #17952). CD14+ cells were cultured in RPMI containing 10% FBS, 5% Penicillin-Streptomycin (PS, Thermo Fisher #10378-016), 50 μg/ml Gentamicin (Thermo Fisher #15750-045) and 10 mM HEPES (Thermo Fisher #15630-056). CD14+ cells were differentiated ex vivo into MDDC by supplementing the culture media with 50 ng/ml IL-4 (Miltenyi #130-093-922) and 10 ng/ml GM-CSF (Miltenyi #130-093-867). MDDC were used for experiments 3 or 4 days following the start of the culture. CD14+ cells were differentiated ex vivo into macrophages by adding 50 ng/ml MCSF (Miltenyi #130-096-492) to the culture media containing RPMI with 1% PS, 5% FBS and 5% human serum (Sigma #H4522). MDM were used 7 days following culture. Freshly isolated CD4+ T cells were cultured in X-VIVO 15 (Lonza #BE02-060F) and activated using anti-CD3 and anti-CD28 Dynabeads (fisher scientific #10548353) at the ratio of 1:5 (bead:cell). 100 U/ml human IL-2 (Immunotools #11340027) was added to cultures 2 days following TCR stimulation and media with IL-2 was replenished every 48 hours. To assess proliferation, freshly isolated CD4+ T cells were stained with cell proliferation dye (thermo fischer #65-0840-85) prior to TCR stimulation.
CD14+ cells were plated at 1 million cells/ml and transduced with equal volumes of freshly harvested SIV-VLPs and pTRIP-SFFV vectors in the presence of 8 μg/ml protamine (Sigma #P4020). CD4+ T cells were transduced with lentivectors 24 hours post-TCR stimulation in 100 μl of cells (0.2 million cells) and 100 μl of freshly harvested lentivirus in the presence of 8 μg/ml protamine. T cells were spinoculated at 1200 g for 2 hours at 25° C. 0.5 million THP-1 cells in 500 μl media (RPMI 10% FBS 1% PS) were transduced with 500 μl freshly harvested lentivirus in the presence of 8 μg/ml protamine. 1 μg/ml Puromycin (Invivogen #ant-pr-1) was added 2 days post-transduction when cells were transduced with pLKO.1-puro plasmid.
For stimulation of STING by extracellular ligands, 2.5 μg of ADUS100 (invivogen #tlrl-nacda2r-01) or 2′3′-cGAMP (cGAMP, invivogen #tlrl-nacga23-02) was added to 100,000 cells in 100 μl media either on freshly isolated primary cells or 3-4 days post differentiation for MDDC and 3 days post-TCR stimulation for CD4+ T cells. Cells and supernatant were harvested 18-24 hours post stimulation. For delivery of STING ligands after permeabilization, T cells were used 3 or 4 days post TCR stimulation and MDDC were used 3-4 days following differentiation. 150,000 cells were plated in round bottom 96-well plate. Media was removed by centrifugation and 20 μl 2× permeabilization buffer (100 mM HEPES, 200 mM KCl, 6 mM MgCl2, 0.2 mM DTT, 170 mM Sucrose, 2 mM ATP, 2 mM GTP, 0.4% bovine serum albumin (BSA), 20 μg/ml digitonin) and 20 μl cGAMP (12 μg/ml) was added to cells. 18 to 20 hours following stimulation supernatants and cells were harvested. Cells were stained with a fixable viability dye (Invitrogen #65-0865-14) and acquired on a FACSVerse (BD).
For experiments with conditioned media, CD4+ T cell- and MDDC-conditioned media refer to […] filtered conditioned media from cultures of activated CD4+ T cell and MDDC, respectively. CD4+ T cells were pretreated with 100 μl of MDDC-conditioned media or of fresh MDDC culture media, 24 hours prior to cGAMP stimulation. […]

As to “RELA K5R: RELA mutant converting five lysine residues (K122, K123, K310, K314, K315) to arginine, expressed from lentivector”, the “endogenous RELA expression” value in assay [1] (overexpression in CD4+ T cells and MDDC, FIG. 2C) was “no impact”. The “increase in IFNλ1 at baseline” value in the assay on MDDC (MDDC, monocyte-derived macrophages (MDM) or THP-1 cells, data not shown) is “not observed”. In the assay on MDDC (lentivector overexpression in MDDC, cGAMP 6 μg/ml, FIG. 2D), the “IFN-I/III response to cGAMP compared to the control condition” value is “remained unchanged”.

B1: IRF3: interferon Regulatory Factor 3, over-expressed from lentivector (protein, UniProt Q14653 1-427, looked up)
Interferon regulatory factor 3: MGTPKPRILPWLVSQLDLGQLEGVAWVNKSRTRFRIPWKHGLRQDAQQEDFGIFQAWAEATGAYVPGRDKPDLPTWKRNFRSALNRKEGLRLAEDRSKDPHDPHKIYEFVNSGVGDFSQPDTSPDTNGGGSTSDTQEDILDELLGNMVLAPLPDPGPPSLAVAPEPCPQPLRSPSLDNPTPFPNLGPSENPLKRLLVPGEEWEFEVTAFYRGRQVFQQTISCPEGLRLVGSEVGDRTLPGWPVTLPDPGMSLTDRGVMSYVRHVLSCLGGGLALWRAGQWLWAQRLGHCHTYWAVSEELLPNSGHGPDGEVPKDKEGGVFDLGPFIVDLITFTEGSGRSPRYALWFCVGESWPQDQPWTKRLVMVKVVPTCLRALVEMARVGGASSLENTVDLHISNSHPLSLTSDQYKAYLQDLVEGMDFQGPGES
Turning to B1, the “phospho-IRF3 levels in response to cGAMP” value in assay [1] (IRF3 over-expression, equivalent in CD4+ T cells and MDDC, FIG. 3C) is “massive increase”. Further, the “augmentation of cGAMP-mediated IFNλ1, IFNα2 and IFNβ production” value in the assay with MDDC (IRF3 over-expression in MDDC, cGAMP 6 μg/ml, FIG. 3B) is reported as 10 fold.

The record behind these values is patent publication US20250213614A1, “Modified RELA Protein for Inducing Interferon Expression and Engineered Immune Cells with Improved Interferon Expression” (Institut Curie, priority 2022, published 2025).
